# Measured values published in patent US5545625A, “Preventing conversion of citrulline to argininosuccinate to limit pathological nitric oxide overproduction” (The Medical College of Wisconsin Research Foundation, Inc., priority 1994, dated 1996).
# Values joined by “and” are separate entries in the source; they are usually repeats but may differ in a detail not shown here. Identical values can stand only once.
# Assays:
# [1] = molecular target: T1, immunostimulant induced argininosuccinate synthetase (Rattus norvegicus, UniProt P09034); assay: Argininosuccinate synthetase assay in crude homogenate of immunostimulant treated rat aortic smooth muscle cells (Example VI); assay type: biochemical; settings: test compound 1 mM; for counts per minute in the argininosuccinate synthetase assay: duplicate runs, control 534.00 and 443.00, background 217, 237 and 252 not subtracted
# T1 sequence (P09034 1-412): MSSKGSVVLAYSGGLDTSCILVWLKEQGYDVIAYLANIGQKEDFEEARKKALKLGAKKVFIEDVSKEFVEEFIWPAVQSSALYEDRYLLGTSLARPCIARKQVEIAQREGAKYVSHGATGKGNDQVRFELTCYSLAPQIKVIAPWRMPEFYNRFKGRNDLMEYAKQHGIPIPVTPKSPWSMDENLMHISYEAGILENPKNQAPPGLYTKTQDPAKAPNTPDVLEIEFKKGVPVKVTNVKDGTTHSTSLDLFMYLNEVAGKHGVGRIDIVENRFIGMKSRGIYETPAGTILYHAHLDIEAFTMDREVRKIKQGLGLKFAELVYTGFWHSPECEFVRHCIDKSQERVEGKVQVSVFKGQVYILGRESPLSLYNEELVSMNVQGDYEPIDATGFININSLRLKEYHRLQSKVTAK
# Protocol: Argininosuccinate synthetase activity was assayed based on the conversion of [^14 C]aspartate to [^14 C]argininosuccinate, as described in O'Brien, W. E., Biochemistry 18, 5353-5356, 1979, with the exception that aspartate was present at a concentration of 30 μm (0.021 μCi/nmol). Reaction mixtures also contained L-citrulline (5 mM), Tris (10 mM, pH 7.5), ATP 0.1mM), phosphoenolpyruvate (1.5 mM), pyruvate kinase (4.5 units), myokinase (4 units), and pyrophosphatase (0.2 unit) in a total volume of 0.3 ml. Reactions were allowed to proceed for 90 minutes at 37° C before termination and quantification of the [^14 C]argininosuccinate formed, using ion exchange chromatography on Dowex 1-X8 (200-400 mesh, Bio-Rad).
# Immunostimulant treated rat aortic smooth muscle cells prepared as in Example I were homogenized in 10 volumes (10 ml/gm rat aortic smooth muscle cells) of 100 mM tris buffer containing 1 mM phenylmethylsulfonyl fluoride ([…]) and 1 mM dithiothreitol (to maintain enzyme in reduced form).
# For the control, the crude homogenate was assayed for argininosuccinate synthetase by the procedure as described in Example I except that L-citrulline was present at a concentration of 150 μM instead of 5 mM. In duplicate runs, counts per minute were 534.00 (8.65% error) and 443.00 (9.50% error) counts per minute.
# The background count to be subtracted from the above count results was obtained by omitting citrulline from the argininosuccinate synthetase assay and in three runs was determined to be 217, 237 and 252 counts per minute.
# [2] = system: rat aortic smooth muscle cells; assay: Nitrite production (indicator of cellular NO synthesis) by LPS/interferon-gamma induced rat aortic smooth muscle cells (Examples IV, V); assay type: cell-based; settings: L-citrulline varied at fixed L-arginine (0 or low), added with immunostimulant; 24 hours; FIG. 5
# Protocol: Rat aortic smooth muscle cells were grown as described in Example I and were continuously treated with 30 μg/ml of bacterial lipopolysaccharide in combination with 50 ng/ml of interferongamma. Concentrations of mithramycin as indicated in FIG. 4 were added either simultaneously with immunostimulant (filled in circles in FIG. 4) or 4 hours later (open circles in FIG. 4).
# Nitrite was used as an indicator of cellular NO synthesis and assay was carried out as described in Gross, S. S., et al, J. Biol. Chem. 267, 25722-25729 (1992). In the assay, cells were treated with serum- and arginine-free RPMI 1640 medium containing the desired test agents for 24 hours. The accumulation of nitrite in the cell culture medium was quantified colorimetrically after adding 100 μl of Griess reagent (1% sulfanilamide and 0.1% naphthalene diamine in 5% o-phosphoric acid) to an equal volume of sample.
# Rat aortic smooth muscle cells were grown as described in Example I and were treated with 30 μg/ml of bacterial lipopolysaccharide in combination with 50 ng/ml of interferon-gamma. Concentrations of L-citrulline and L-arginine as indicated in FIG. 5 were added simultaneously with immunostimulant. Nitrite was used as an indicator of cellular NO synthesis and assay therefor was carried out as described in Example IV.
# [3] = system: patient with Gram negative septicemia; assay: Blood pressure in septicemia patient given N^G -methyl-L-arginine plus test agent (Examples X, XVI); assay type: in vivo, human; settings: N^G -methyl-L-arginine 20 mg/kg bolus then 10 mg/kg/hr, plus N^ω -methyl-L-citrulline 40 mg/kg intravenously over 3-6 hours
# Protocol: A patient with Gram negative septicemia and blood pressure of 80/55 mm Hg is administered N^G -methyl-L-arginine in a bolus dose of 20 mg/kg intravenously in saline and thereafter is given a sustained infusion of N^G -methyl-L-arginine at a dosage of 10 mg/kg/hr. Mithramycin (25 μg/kg) is given intravenously in 50 ml saline over 3-6 hours starting at the time of the bolus dose of N^G -methyl-L-arginine. […] The patient is released after 2 days.
# A patient with a Gram negative septicemia and blood pressure of 80/55 mm Hg is administered N^G -methyl-L-arginine in a bolus dose of 20 mg/kg intravenously in saline and thereafter is given a sustained infusion of N^G -methyl-L-arginine at a dose of 10 mg/kg/hr. N^ω -Methyl-L-citrulline (40 mg/kg) is given intravenously in 50 ml saline over 3-6 hours starting at the time of the bolus dose of N^G -methyl-L-arginine.
# [4] = system: human treated with interleukin-2; assay: Hypotension during interleukin-2 treatment for renal cell cancer (Examples VIII, XIV); assay type: in vivo; settings: interleukin-2 1×10^6, 5 days; L-thiocitrulline 10 mg/kg/day from start of infusion
# Protocol: A human is treated for renal cell cancer with interleukin-2 (1×10^6 units) for 5 days. By the fifth day, the patient's blood pressure falls to 80/55 mm Hg and the patient encounters nausea and extreme discomfort. Three weeks later, the patient returns for a second course of interleukin-2 treatment but is pretreated (before commencing interleukin-2 infusion) with mithramycin (25 μg/kg) and is treated at 24 hour intervals thereafter with 25 μg/kg of mithramycin. The mithramycin is administered intravenously in 50 ml saline over a 3 to 6 hour interval.
# A human is treated for renal cell cancer with interleukin-2 (1×10^6) for 5 days. Simultaneously with commencing interleukin-2 infusion, L-thiocitrulline (10 mg/kg/day) is administered.
# [5] = system: patient with Gram negative septicemia; assay: Blood pressure in septicemia patient given dopamine plus test agent (Examples IX, XV); assay type: in vivo, human; settings: dopamine 10 μg/kg/min plus L-thiocitrulline 20 mg/kg bolus then 10 mg/kg/hr
# Protocol: A patient with Gram negative septicemia and blood pressure of 80/55 mm Hg is administered dopamine at 10 μg/kg/min to acutely increase blood pressure and concurrently is administered mithramycin (25 μg/kg) intravenously in 50 ml saline over 3-6 hours.
# A patient with Gram negative septicemia and blood pressure of 80/55 mm Hg is administered dopamine at 10 μg/kg/min to acutely increase blood pressure and concurrently is intravenously administered an initial bolus dose of L-thiocitrulline of 20 mg/kg and thereafter L-thiocitrulline as a sustained infusion at a dose of 10 mg/kg/hr.
# Sprague-Dawley rats = assay: Air pouch inflammatory model with croton oil (Examples XII, XVIII); assay type: in vivo, rat; settings: L-thiocitrulline 20 mg/kg intraperitoneally, repeated at 6-24 hour intervals; end of 5 days; versus rats without drug
SMILES,inhibition of immunostimulant induced argininosuccinate synthetase ([1]; L-citrulline 150 μM),counts per minute in the argininosuccinate synthetase assay ([1]; L-citrulline 150 μM),inhibition of immunostimulant induced argininosuccinate synthetase ([1]; stated in present tense),further results
N=C(N)NOCC[C@H](N)C(=O)O [L-canavanine],are inhibitors of immunostimulant induced argininosuccinate synthetase,355.00 (10.61% error) counts per minute and 393.00 (10.09% error) counts per minute,–,–
NC(=O)NCCC[C@H](N)C(=O)O [L-citrulline],–,–,–,nitrite concentration in cell culture medium [2]: maximal nitrite is obtained
CNC(=N)NCCC[C@H](N)C(=O)O [N^ω -methyl-L-arginine],–,591.00 (8.23% error) counts per minute and 520.00 (8.77% error) counts per minute,–,–
CNC(=O)NCCC[C@H](N)C(=O)O [N^ω -methyl-L-citrulline],–,–,more potent than obtained with L-canavanine but less potent than obtained with L-thiocitrulline,blood pressure [3]: becomes mildly hypotensive or normal within minutes
CCC[C@H](N)C(=O)O [L-norvaline],–,–,inhibition of immunostimulant induced argininosuccinate synthetase is shown,–
NC(=S)NCCC[C@H](N)C(=O)O [L-thiocitrulline],are inhibitors of immunostimulant induced argininosuccinate synthetase,272.00 (12.13% error) counts per minute and 227.00 (13.27% error) counts per minute,–,development of hypotension [4]: Hypotension does not develop; blood pressure [5]: becomes normal within minutes and this state is sustained; inflammation (Sprague-Dawley rats): less inflammation; nitrite in the fluid exudate of the lesion (Sprague-Dawley rats): significantly less nitrite
